Columns and labels:
Assay type in all cases: physicochemical
[1] = Chemical stability of the actives in Composition 2
Procedure: The compositions of the invention are found particularly effective in conserving satisfactory chemical stability of active principles which are sensitive to oxidation, to water and to aqueous media in general. The term “satisfactory chemical stability” refers to a composition which over a period of at least 3 months, respectively at ambient temperature and at 40° C.:
has an active principles content of at least 80%, in particular at least 90% and more particularly at least 95% of the initial weight content.

[2] = Stability of calcitriol in Cetiol SN (HPLC assay against a reference); conditions: for Calcitriol content, T0 taken as 100%: calcitriol 30 ppm in Cetiol SN, 0.4% BHT, under nitrogen
Procedure: b) Stability of Calcitriol in Cetiol SN (Cetearyl Isononanoate): A solution is prepared of calcitriol 30 ppm in qs 100% of Cetiol SN in the presence of 0.4% of BHT and kept under nitrogen. The initial time (TO) is taken as 100%.

[3] = Stability of calcitriol in Miglyol 812 (HPLC assay against a reference); conditions: for Calcitriol content, T0 taken as 100%: calcitriol 30 ppm in Miglyol 812, 0.4% BHT, under nitrogen
Procedure: The stability of calcitriol was evaluated in the following two oil solvents: Miglyol 812 and Cetiol SN. a) Stability of Calcitriol in Miglyol 812 (Caprylic and 20 Capric Triglycerides): A solution is prepared of calcitriol 30 ppm in qs 100% of Miglyol 812 in the presence of 0.4% of BHT (antioxidant), kept under nitrogen. The initial time (TO) is taken as 100%.

Structure (SMILES)	Chemical stability: content of the active ([1]; T0, AT)	Chemical stability: content of the active ([1]; T15 d, 40° C.)	Chemical stability: content of the active ([1]; T15 d, AT)	Calcitriol content, T0 taken as 100% ([2]; +4° C., T2 weeks) [%]	Calcitriol content, T0 taken as 100% ([2]; +4° C., T4 weeks) [%]	Calcitriol content, T0 taken as 100% ([2]; +40° C., T2 weeks) [%]	Calcitriol content, T0 taken as 100% ([2]; +40° C., T4 weeks) [%]	Calcitriol content, T0 taken as 100% ([2]; AT, T2 weeks) [%]	Calcitriol content, T0 taken as 100% ([2]; AT, T4 weeks) [%]	Stability in solution ([2]; in cetearyl isononanoate, 1 month)	Calcitriol content, T0 taken as 100% ([3]; +4° C., T2 weeks) [%]	Calcitriol content, T0 taken as 100% ([3]; +4° C., T4 weeks) [%]	Calcitriol content, T0 taken as 100% ([3]; +40° C., T2 weeks) [%]	Calcitriol content, T0 taken as 100% ([3]; +40° C., T4 weeks) [%]	Calcitriol content, T0 taken as 100% ([3]; ambient temperature, T2 weeks) [%]	Calcitriol content, T0 taken as 100% ([3]; ambient temperature, T4 weeks) [%]	Stability in solution ([3]; in caprylic/capric triglyceride, 1 month)
CCC(=O)O[C@]1(C(=O)CCl)[C@@H](C)C[C@H]2[C@@H]3CCC4=CC(=O)C=C[C@]4(C)[C@@]3(F)[C@@H](O)C[C@@]21C [CLOBETASOL PROPIONATE, clobetasol 17-propionate]	PROPIONATE: 97.3%	PROPIONATE: 92.3	PROPIONATE: 95.2														
C=C1/C(=C\C=C2/CCC[C@]3(C)[C@@H]([C@H](C)CCCC(C)(C)O)CC[C@@H]23)C[C@@H](O)C[C@@H]1O [calcitriol]	CALCITRIOL: 97.6%	CALCITRIOL: 86.8	CALCITRIOL: 95.1	103.7	97.9	99.4	98.1	99.6	98.7	stable	98.2	105.2	93.1	95.0	95.8	98.0	stable
